According to PMC4193996 (Journal of Experimental & Clinical Cancer Research : CR, 2014):

Columns and labels:
BJ-EHLT fibroblasts [1] = experiment: γ-H2AX/PCNA co-immunostaining (replication-dependent DNA damage); assay type: cell-based, human; conditions: 24 hrs
Experimental: (§1) Cells were fixed in 2% formaldehyde and permeabilized in 0.25% Triton X100 in PBS for 5 min at room temperature. For immunolabeling, cells were incubated with primary antibody, then washed in PBS and incubated with the secondary antibodies. The following primary antibodies were used: pAb and mAb anti-TRF1(Abcam Ltd.; Cambridge UK); mAb (Upstate, Lake Placid, NY) and pAb anti-γH2AX (Abcam); mAb anti-PCNA (Sigma Chemicals, Milano, Italy). The following secondary antibody were used: TRITC conjugated Goat anti Rabbit, FITC conjugated Goat anti Mouse (Jackson ImmunoResearch Europe Ltd., Suffolk, UK). Fluorescence signals were recorded by using a Leica DMIRE2 microscope equipped with a Leica DFC 350FX camera and elaborated by a Leica FW4000 deconvolution software (Leica, Solms, Germany). This system permits to focus single planes inside the cell generating 3D highresolution images. For quantitative analysis of γH2AX positivity, 200 cells on triplicate slices were scored. For TIFs analysis, in each nucleus a single plane was analyzed and at least 50 nuclei per sample were scored.
Figure 2 DNA damage activation at telomeres. BJ-EHLT fibroblasts were treated for 24 hrs with compound 1 and the indicated ligands at the doses 0.1 (light-grey bars) and 0.5 μM (dark-grey bars). […] Cells with four or more γ-H2AX/TRF1 foci were scored as TIF positive. […]

[2] = system: h-Tel quadruplex DNA, 5'-biotin-d[AG3(T2AG3)3] (DNA, G4) AGGGTTAGGGTTAGGGTTAGGG; experiment: SPR
[3] = target: human recombinant β2 adrenergic receptor (Homo sapiens, UniProt P07550); experiment: β2 adrenergic receptor inhibition assay; assay type: binding; conditions: read-out: β2 adrenergic % inh @1 μM
Sequence of human recombinant β2 adrenergic receptor (P07550 whole entry): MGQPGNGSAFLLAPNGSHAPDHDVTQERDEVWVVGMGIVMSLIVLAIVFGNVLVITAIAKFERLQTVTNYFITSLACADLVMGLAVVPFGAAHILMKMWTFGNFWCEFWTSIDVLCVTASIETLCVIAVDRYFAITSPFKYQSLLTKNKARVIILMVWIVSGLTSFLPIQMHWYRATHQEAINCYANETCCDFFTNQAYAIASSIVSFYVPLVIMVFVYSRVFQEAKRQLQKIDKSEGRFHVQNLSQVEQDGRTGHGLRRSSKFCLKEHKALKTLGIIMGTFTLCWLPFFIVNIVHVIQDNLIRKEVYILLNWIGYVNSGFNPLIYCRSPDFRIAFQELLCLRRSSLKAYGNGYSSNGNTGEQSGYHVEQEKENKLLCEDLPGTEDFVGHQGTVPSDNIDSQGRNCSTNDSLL
Experimental: (§2) hEGR study and the M2 and the β2 receptor inhibition assay were performed as previously reported.
(§3) The new G-quadruplex ligands were designed in an attempt to obtain molecules with improved toxicological and on-target profiles, but maintaining the same favorable chemical and pharmacological features of the lead compound 1. With the aim of selecting the best variants, a step by step comparative analysis of their off- and on-target properties was performed. Initially the new molecules were tested for their ability to interact with and inhibit the human recombinant β2 adrenergic and M2 muscarinic receptors, and to reduce the hERG tail current in a patch clamp assay. […] Therefore, we might expect that the new ligands would impair cardiac functionality to a lesser extent than the lead molecule does.

[4] = system: alternating hairpin duplex sequence 5'-biotin-CGA3T3C(CT)2GA3T3CG; experiment: SPR binding to duplex DNA
Experimental: Oligonucleotides 5’-biotin-d [AG3 (T2AG3)3] quadruplex and 5’-biotin-CGA3T3C(CT)2GA3T3CG were purchased from Midland Certified Reagent Company (Midland, TX). Purification of DNA, preparation of solutions, collection of data, and analysis of results were conducted according to methods adopted in an earlier study.
This technique takes advantage of the refractive index change elicits by the binding of the drug with the h-Tel quadruplex DNA sequence 5’-d[AGGG(TTAGGG)3]-3’ or an alternating hairpin duplex sequence immobilized on a sensor chip surface.

[5] = system: human colon cancer cell line HT-29; experiment: MTT proliferation assay, HT-29; assay type: cell-based; conditions: 96 hours
Experimental: Normal WI-38 diploid human lung fibroblasts and the human colorectal adenocarcinoma HT29 cells were obtained from American Type Culture Collection (Manassas, VA, USA). BJ fibroblasts expressing hTERT and SV40 early region (BJ-EHLT) were obtained as previously reported. Cells were grown in Dulbecco Modified Eagle Medium (D-MEM, Invitrogen Carlsbad, CA, USA) supplemented with 10% fetal calf serum, 2 mM L-glutamin and antibiotics.
MTT (3-(4,5-Dimethylthiazol-2-yl)-2,5-diphenyltetrazolium Bromide) assay was performed in treated and untreated cells for 96 hours. Cells were incubated with MTT solution (Sigma-Aldrich), and the purple formazan crystals were dissolved in isopropanol. Optical densities (OD) at 540 nm was determined on microplate reader.
Firstly, we investigated if they were able to efficiently promote growth inhibition of tumor cells without affecting the survival of normal cells in vitro. In Table 1 we report for each compound the concentration causing 50% of growth inhibition (GI50) calculated by performing a proliferation assay in the human colon cancer cell line HT-29 or in the human ‘normal’ lung WI-38 cells. […] On the basis of results described so far, we decided to exclude from the further analysis ligand 10 for its high value of hERG inhibition (95%) (Table 1).

BJ-EHLT fibroblasts [6] = experiment: γ-H2AX/TRF1 colocalization (TIFs, telomere uncapping); assay type: cell-based, human
Experimental: as §1
Unfortunately, we were not able to test compounds 4, 5 and the 0,5 μM dose of 3 as they were fluorescent in both red and green channels. […] To ascertain whether γ-H2AX was phosphorylated in response to dysfunctional telomeres, double immunofluorescence experiments were processed by confocal microscopy. We observed that some of the γ-H2AX foci induced by G4-ligands colocalized with TRF1, a good marker for interphase telomeres, forming the so-called telomere dysfunction-induced foci (TIFs) (Figure 2B).
Figure 2 DNA damage activation at telomeres. BJ-EHLT fibroblasts were treated for 24 hrs with compound 1 and the indicated ligands at the doses 0.1 (light-grey bars) and 0.5 μM (dark-grey bars). Cells were processed for immunofluorescence (IF) using antibodies against γ-H2AX and TRF1 to mark DNA damage and telomeres respectively. Percentages of γ-H2AX- (A) and TIF-positive (B) treated and untreated cells are reported in the histograms. (C) Mean number of TIFs in the indicated samples. Cells with four or more γ-H2AX/TRF1 foci were scored as TIF positive. Error bars indicate the standard deviation. (D) Representative images of IF of untreated and 1, 3, 6 and 8-treated BJ-EHLT cells. Enlarged views of TIFs are reported on the right of the merged images. The images were acquired with a Leica Deconvolution microscope (magnification 100x). (E) Cells treated as in (A) were processed for IF of γ-H2AX and PCNA to mark replicating cells. Percentage of γ-H2AX+/PCNA- or γ-H2AX+/PCNA + nuclei in the indicated samples are reported in the histograms.

hERG = hERG (Homo sapiens, UniProt Q12809); experiment: hERG tail current inhibition in a patch clamp assay; assay type: cell-based; conditions: read-out: hERG % inh @10 μM
Sequence of hERG (Q12809 whole entry): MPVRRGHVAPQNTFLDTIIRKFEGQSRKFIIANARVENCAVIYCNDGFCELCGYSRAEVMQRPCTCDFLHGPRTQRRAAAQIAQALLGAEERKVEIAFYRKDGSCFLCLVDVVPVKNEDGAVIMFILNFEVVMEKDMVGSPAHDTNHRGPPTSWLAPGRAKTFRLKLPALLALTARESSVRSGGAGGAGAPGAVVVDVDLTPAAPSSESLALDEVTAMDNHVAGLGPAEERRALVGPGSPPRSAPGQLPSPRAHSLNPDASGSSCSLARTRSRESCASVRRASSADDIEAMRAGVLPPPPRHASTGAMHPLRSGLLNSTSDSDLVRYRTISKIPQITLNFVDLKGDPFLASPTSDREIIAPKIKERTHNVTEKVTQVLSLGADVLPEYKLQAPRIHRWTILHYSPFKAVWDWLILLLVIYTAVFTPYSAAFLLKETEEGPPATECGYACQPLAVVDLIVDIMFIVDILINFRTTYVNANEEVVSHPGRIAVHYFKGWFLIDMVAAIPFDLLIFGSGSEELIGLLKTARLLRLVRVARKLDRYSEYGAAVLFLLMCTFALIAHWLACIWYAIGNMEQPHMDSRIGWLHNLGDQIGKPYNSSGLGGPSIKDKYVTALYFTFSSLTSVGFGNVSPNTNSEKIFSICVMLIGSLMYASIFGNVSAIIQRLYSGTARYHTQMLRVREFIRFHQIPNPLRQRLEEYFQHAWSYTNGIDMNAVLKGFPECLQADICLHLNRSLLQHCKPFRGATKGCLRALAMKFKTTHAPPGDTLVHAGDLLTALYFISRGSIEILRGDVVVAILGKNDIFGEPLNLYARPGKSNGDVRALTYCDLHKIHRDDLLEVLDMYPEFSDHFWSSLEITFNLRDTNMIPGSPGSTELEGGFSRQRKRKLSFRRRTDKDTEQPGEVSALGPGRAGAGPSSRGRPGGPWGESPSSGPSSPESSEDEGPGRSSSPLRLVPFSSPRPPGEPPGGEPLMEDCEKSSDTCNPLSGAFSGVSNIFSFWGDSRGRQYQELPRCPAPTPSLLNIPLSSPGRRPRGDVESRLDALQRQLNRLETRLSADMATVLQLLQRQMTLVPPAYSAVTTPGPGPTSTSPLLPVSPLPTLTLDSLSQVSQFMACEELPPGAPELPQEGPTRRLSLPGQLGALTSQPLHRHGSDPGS
Experimental: as §2, §3

CC(=O)NCC#Cc1ccc2c3cccc4c3c([n+](C)c2c1)-c1ccccc1N4C [Compound 8]
γ-H2AX foci formation relative to PCNA status (BJ-EHLT fibroblasts [1]): almost exclusively restricted to PCNA-positive | K [2]: 1.42e+07 M⁻¹ | inhibition at 1 µM [3]: 2% | Duplex DNA affinity K [4]: 0,9 x10^6 M^−1 | GI50 [5]: 750 nM | mean TIFs per nucleus (BJ-EHLT fibroblasts [6]; 24 hrs): about seven | percentage of cells with more than four γ-H2AX/TRF1 colocalizations (TIF-positive) (BJ-EHLT fibroblasts [6]; 24 hrs, 0,5 μM): ~40% | inhibition at 10 µM (hERG): 40%
